According to publication PMC9594040, “Structure-Based Discovery of Negative Allosteric Modulators of the Metabotropic Glutamate Receptor 5” (ACS Chemical Biology, 2022):
Like-named read-outs stand apart in the source and are kept apart here.

What was measured:
human mGlu5 [1] = target: T1, human mGlu5 (Homo sapiens, UniProt P41594); experiment: IP1 functional assay, quisqualate-stimulated HEK293 cells expressing mGlu5; assay type: cell-based; set-up: expressed in transfected cells; host or cells: HEK293 cells, transient electroporation; glutamate transporter EAAC1 co-transfected; conditions: for functional activity in IP1 assay: agonist (quisqualate)-induced mGlu5-dependent IP1 production
T1 sequence (P41594 21-1212): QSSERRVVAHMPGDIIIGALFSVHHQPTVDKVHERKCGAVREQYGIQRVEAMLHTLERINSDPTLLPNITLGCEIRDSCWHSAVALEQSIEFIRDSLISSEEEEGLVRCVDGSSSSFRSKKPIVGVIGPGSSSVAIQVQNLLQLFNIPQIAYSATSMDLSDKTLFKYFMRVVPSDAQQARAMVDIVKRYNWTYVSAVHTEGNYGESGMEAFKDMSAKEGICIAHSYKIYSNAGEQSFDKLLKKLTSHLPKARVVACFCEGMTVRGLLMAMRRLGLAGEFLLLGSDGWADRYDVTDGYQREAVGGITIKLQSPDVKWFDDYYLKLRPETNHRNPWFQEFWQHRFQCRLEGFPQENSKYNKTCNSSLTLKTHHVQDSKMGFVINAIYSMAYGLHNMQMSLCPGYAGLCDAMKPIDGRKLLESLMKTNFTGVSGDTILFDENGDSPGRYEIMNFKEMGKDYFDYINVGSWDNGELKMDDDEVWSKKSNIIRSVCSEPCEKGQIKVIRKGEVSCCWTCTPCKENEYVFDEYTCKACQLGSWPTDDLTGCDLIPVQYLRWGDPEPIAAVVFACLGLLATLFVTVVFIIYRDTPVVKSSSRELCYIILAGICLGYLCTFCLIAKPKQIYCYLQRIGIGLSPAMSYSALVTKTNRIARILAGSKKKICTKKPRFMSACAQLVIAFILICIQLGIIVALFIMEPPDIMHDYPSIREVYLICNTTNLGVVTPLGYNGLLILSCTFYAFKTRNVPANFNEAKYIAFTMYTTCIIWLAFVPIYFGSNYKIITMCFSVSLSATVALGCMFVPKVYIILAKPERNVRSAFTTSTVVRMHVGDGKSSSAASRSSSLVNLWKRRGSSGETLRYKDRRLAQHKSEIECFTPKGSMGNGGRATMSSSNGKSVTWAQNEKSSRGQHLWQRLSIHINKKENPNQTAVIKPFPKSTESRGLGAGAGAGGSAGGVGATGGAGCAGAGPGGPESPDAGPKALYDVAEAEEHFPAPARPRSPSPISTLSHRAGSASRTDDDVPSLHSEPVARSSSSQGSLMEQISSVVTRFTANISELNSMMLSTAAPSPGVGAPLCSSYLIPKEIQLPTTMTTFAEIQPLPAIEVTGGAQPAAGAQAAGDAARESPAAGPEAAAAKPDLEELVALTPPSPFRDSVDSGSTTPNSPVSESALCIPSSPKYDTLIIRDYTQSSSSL
Protocol: Figure 3 Evaluation of compounds F1 and F2 in functional assays. Representative dose–response curve of compounds (a) F1 and (b) F2 in an IP1 functional assay. […] Each point was performed in triplicate and is shown as a mean ± SEM of 3–5 independent experiments.
HEK293 cells were cultured in Dulbecco’s modified Eagle’s medium (DMEM) supplemented with 10% fetal bovine serum (FBS) and were maintained at 37 °C in a humidified atmosphere with 5% CO2. Transient transfection was performed using electroporation in a volume of […] with […] of plasmid encoding SNAP-tag human mGlu5, […] plasmid encoding for the glutamate transporter EAAC1 plasmids, and 10 million of HEK293 cells in electroporation buffer (50 mM K2HPO4, 20 mM CH3COOK, and 20 mM KOH, pH 7.4). After electroporation (250 V, 0.5 mF, Bio–Rad Gene Pulser electroporator; Bio-Rad Laboratories, Hercules, CA), cells were resuspended in 10 mL of DMEM supplemented with 10% FBS and seeded for 24 h into black, clear-bottom 96-well culture plates (Greiner Bio-one), pretreated with Poly-L-Ornithine 1X, at a density of 100,000 cells per well. Following 24 h of transfection, HEK293 cells were incubated for 2 h with glutamate-free DMEM GlutaMAX-I (Life Technologies). The IP1 accumulation assay kit (Cisbio Bioassays, PerkinElmer) was used for the direct quantitative measurement of IP1. Cells were stimulated by quisqualate at EC80 alone and with various concentrations of allosteric compounds, incubated for 30 min at 37 °C, 5% CO2. Cells were then lysed using the conjugate-lysis buffer mixed with the d2-labeled IP1 analogue and the Lumi4-terbium cryptate-labeled anti-IP1 antibody according to the manufacturer’s instructions. After a 1 h incubation at room temperature, the HTRF measurement was performed after excitation at 337 nm with 50 μs delay. Terbium cryptate fluorescence and tr-FRET signals were measured at 620 and 665 nm, respectively, using a PheraStar fluorimeter (BMG Labtech).

human mGlu5 [2] = target: T1, human mGlu5; experiment: Radioligand displacement assay (radiolabeled MPEP) on membranes of HEK293 cells stably expressing mGlu5; conditions: Ki
Protocol: Treated cells were harvested with PBS/2 mM EDTA and washed three times with ice-cold PBS and frozen at −80 °C. The frozen cell pellet was resuspended in membrane buffer (25 mM Tris/7.4, 250 mM sucrose, 2.5 mM EDTA, 2 ug/ml aprotinin, 0.5 ug/ml leupeptin and 200 nM PMSF) and homogenized with a polytron 20–30 s at maximum power. After centrifugation at 18,000 RPM for 30 min at 4 °C, the pellet was resuspended in ice-cold membrane buffer, hand-homogenized, and centrifuged as described above. This pellet was further resuspended in ice-cold membrane buffer. The protein content was measured using the Bradford method with bovine serum albumin as the standard. The membrane homogenate was frozen at −80 °C before use. After thawing, the membranes were washed once and resuspended in ice-cold 50 mM Tris–HCl, 0.9% NaCl, pH 7.4 buffer. All incubations were performed at room temperature. For the displacement binding experiments, 15 μg of membranes were incubated with 5 nM the radioligand in the presence of 10 varying concentrations of the test compound for 2 h at room temperature with shaking. At the end of the respective incubations, the suspension was filtered onto PerkinElmer GF/C glass fiber filters (1450–421) pre-soaked in 0.5% polyethyleneimine and washed rapidly four times using a Tomtec Harvester 96 Mach III cell harvester (Tomtec, Hamden, CT) with 5 mL of cold wash buffer (50 mM Tris–HCl, pH 7.4). The radioactivity trapped on the filters was measured after heat sealing the filters with MeltiLexTM A (PerkinElmer, 1450–441) in a 1450 MicroBeta TriLux counter (PerkinElmer). […] IC50 values were derived from the inhibition curve, and Ki values were calculated according to the Cheng-Prusoff equation of Ki = IC50/(1 + [L]/Kd),[61] where [L] is the concentration of radioligand and Kd is its dissociation constant at the receptor, derived from the saturation isotherm.

[3] = analogues of F1, read-out: IC50
[4] = radioligand displacement, mean ± SEM of two experiments
[5] = quisqualate 50 nM, mean ± SEM of 3–5 independent experiments, read-out: pIC50 (converted)

SMILES | functional activity in IP1 assay (human mGlu5 [1]) | IC50 (human mGlu5 [1]; [3]) [µM] | Ki (human mGlu5 [2]; [4]) [µM] | IC50 (human mGlu5 [1]; [5]) [µM] | Ki (human mGlu5 [2]; resynthesized pure sample of F2, new binding assays) [µM]
COCc1cccc(/C=C/c2cccc(C)n2)c1 [F2] | acted as NAMs |  | 0.92 ± 0.12 | 7.94 | 0.55
COc1cccc(CNc2cccc(C#N)c2)c1 [F1] | acted as NAMs |  | 0.43 ± 0.01 | 6.31 | 

More lines, now with the values ahead:

functional activity in IP1 assay (human mGlu5 [1]) | IC50 (human mGlu5 [1]; [3]) [µM] | Ki (human mGlu5 [2]; [4]) [µM] | IC50 (human mGlu5 [1]; [5]) [µM] | Ki (human mGlu5 [2]; resynthesized pure sample of F2, new binding assays) [µM] | SMILES
inactive | > 100 |  |  |  | N#Cc1cccc(NCc2ccccc2)c1 [FA1]
negatively modulated |  | 1.1 ± 0.1 |  |  | Cn1c(SCc2noc(-c3ccoc3)n2)nnc1-c1ccco1 [L2]
negatively modulated |  | 0.99 ± 0.15 |  |  | Cc1cnn(CC2CCCCN2C(=O)c2cc(-c3ccco3)on2)c1 (stereo not drawn) [L1]
inactive | > 100 |  |  |  | COc1cccc(CNc2ccccc2)c1 [FA2]
